This is an account of results in patent publication US8937044B2, “Process for the synchronization of ovulation for timed breeding without heat detection” (priority 2003, dated 2015).

Holding throughout (type): in vivo, swine
Assay [1] relates to postpartum sows. Nature of the assay: Litter size after deslorelin treatment in sows, three farm sites (Example 4). Conditions: Tables 3-5, three sites, regardless of estrus detection. The text has this: (§1) Postpartum sows were randomly distributed into three different groups comprised of Controls, Treatment 1, and Treatment 2, with the exception of Site 3, which was divided into two groups, Control and Treatment 2. Control sows were detected for estrus following weaning, and bred following the normal standard operating procedures for the farms on which they resided. Treatment 1 sows were detected for estrus following weaning, and received a 50 mcg dose of deslorelin in the morning when standing and were bred by AI 4 hours later and again at 24+/−2 hours later. Treatment 2 sows received a 50 mcg dose of deslorelin in SAIB at 96 or 120 hours post-weaning and were bred with a single insemination 28+/−2 hours later with, no regard to estrus detection.

In assay [2] the test system is mature postpartum sows. Nature of the assay: Deslorelin at first detected estrus in postpartum sows, AI breeding (Example 2). On the procedure: Sows were assigned randomly in blocks of two to either control or to be injected intravulvar with 50 mcg of deslorelin in SAIB at the time of estrus detection for sows first detected in estrus in the a.m. and 12 hours later for those first detected in estrus in the p.m. Treated animals were bred AI upon detected estrus and again 24 hours later if still in estrus. Controls received a saline injection on first detected estrus behavior estrus detection and were bred according to the farm's normal procedures.

The test system of assay [3] is postpartum sows. Nature of the assay: Timed deslorelin injection 96 h post-weaning and single timed insemination without estrus detection (Example 3). As for the experimental part:
Approximately 170 postpartum sows were randomly divided into two equal groups comprised of controls and treated. Following weaning, the controls were detected for estrus and bred following the normal standard operating procedures for the farms on which they resided. The treated sows received a 50 mcg dose of deslorelin in SAIB at 96 hours post-weaning and were bred with a single insemination 28+/−2 hours later with no regard to estrus detection. The sows were examined for pregnancy by ultrasound at 21 days and slaughtered around 28 days post breeding. The entire reproductive tract was removed and corpora lutea and embryos were counted.

Assay [4] deals with postpartum sows. Nature of the assay: Pregnancy rate after deslorelin treatment in sows, summary of Tables 2-5. As to conditions: Table 6 summary. On the procedure: as §1, with “Approximately 170 postpartum sows were randomly divided into two equal groups comprised of controls and treated. Following weaning, the controls were detected for estrus and bred following the normal standard operating procedures for the farms on which they resided. The treated sows received a 50 mcg dose of deslorelin in SAIB at 96 hours post-weaning and were bred with a single insemination 28+/−2 hours later with no regard to estrus detection. The sows were examined for pregnancy by ultrasound at 21 days and slaughtered around 28 days post breeding. The entire reproductive tract was removed and corpora lutea and embryos were counted. Postpartum” for “Postpartum”

Assay [5] relates to LH. The assay can be described thus: LH response (RIA) in ovariectomized estrogen primed gilt model, dose response study. As to conditions: single injection of 50 mcg in SAIB. On the procedure: A dose response study was performed using deslorelin in SAIB in an ovariectomized estrogen primed gilt model (Barb, et al. (1999) Proceed. Int'l. Symp. Control. Rel. Bioact. Mater., 26).

Each structure is given as a SMILES string.

In the case of `CCNC(=O)[C@@H]1CCCN1C(=O)[C@H](CCCN=C(N)N)NC(=O)[C@H](CC(C)C)NC(=O)[C@@H](Cc1c[nH]c2ccccc12)NC(=O)[C@H](Cc1ccc(O)cc1)NC(=O)[C@H](CO)NC(=O)[C@H](Cc1c[nH]c2ccccc12)NC(=O)[C@H](Cc1cnc[nH]1)NC(=O)[C@@H]1CCC(=O)N1` [Deslorelin, deslorelin], in assay [1], the “litter sizes (in words)” value is given as “normal litter sizes”. In addition, the “Pregnancy Rate” value worked out at 91% in assay [2] (50 μg deslorelin acetate (1 ml) intravulvar at first estrus detection, AI, again next day if in estrus, n = 75) and 71% in assay [3] (50 mcg in SAIB 96 h post-weaning, single insemination 28+/-2 h later, no estrus detection). Moreover, the “pregnancy rates, Control versus Treated (in words)” value in assay [2] (50 mcg in SAIB intravulvar at estrus detection) is “no significant difference”. Moreover, in assay [3] (50 mcg in SAIB 96 h post-weaning, single insemination 28+/-2 h later), the “Embryo Survival” value is 64%. Moreover, the “Sows Pregnant” value in assay [3] (50 mcg in SAIB 96 h post-weaning, single insemination 28+/-2 h later, 84 sows in group) was determined as 60. Further, the “pregnancy rates (in words)” value in assay [3] (single timed injection in SAIB post-weaning, single timed insemination, no estrus detection) was “normal pregnancy rates were attained”; in assay [4], “normal pregnancy rates were obtained”. Also, the “time at which LH returned to base level” value in assay [5] was no more than 18 h. The “LH peak relative to normal value” in assay [5] (normal value from Hansel et al. 1973) was “about twice normal value”.
